# According to US5166146A, “Amino acid cyclopentanophenonthrene compounds” (Roussel Uclaf, priority 1989, dated 1992):
# Structures can show the parent of a compound that is named as a salt.
# How the values were obtained:
# [1] = molecular target: T1, Androgen receptor of rat's prostate (Rattus norvegicus, UniProt P15207); assay: Relative bond affinity, androgen receptor of rat's prostate (tritiated testosterone displacement); type: binding; settings: testosterone = 100
# T1 construct: The prostates were removed, weighed and homogenized at 0° C; from tissue; host or cells: prostate cytosol (105,000 g supernatant) of castrated male rats
# T1 sequence (P15207 1-902): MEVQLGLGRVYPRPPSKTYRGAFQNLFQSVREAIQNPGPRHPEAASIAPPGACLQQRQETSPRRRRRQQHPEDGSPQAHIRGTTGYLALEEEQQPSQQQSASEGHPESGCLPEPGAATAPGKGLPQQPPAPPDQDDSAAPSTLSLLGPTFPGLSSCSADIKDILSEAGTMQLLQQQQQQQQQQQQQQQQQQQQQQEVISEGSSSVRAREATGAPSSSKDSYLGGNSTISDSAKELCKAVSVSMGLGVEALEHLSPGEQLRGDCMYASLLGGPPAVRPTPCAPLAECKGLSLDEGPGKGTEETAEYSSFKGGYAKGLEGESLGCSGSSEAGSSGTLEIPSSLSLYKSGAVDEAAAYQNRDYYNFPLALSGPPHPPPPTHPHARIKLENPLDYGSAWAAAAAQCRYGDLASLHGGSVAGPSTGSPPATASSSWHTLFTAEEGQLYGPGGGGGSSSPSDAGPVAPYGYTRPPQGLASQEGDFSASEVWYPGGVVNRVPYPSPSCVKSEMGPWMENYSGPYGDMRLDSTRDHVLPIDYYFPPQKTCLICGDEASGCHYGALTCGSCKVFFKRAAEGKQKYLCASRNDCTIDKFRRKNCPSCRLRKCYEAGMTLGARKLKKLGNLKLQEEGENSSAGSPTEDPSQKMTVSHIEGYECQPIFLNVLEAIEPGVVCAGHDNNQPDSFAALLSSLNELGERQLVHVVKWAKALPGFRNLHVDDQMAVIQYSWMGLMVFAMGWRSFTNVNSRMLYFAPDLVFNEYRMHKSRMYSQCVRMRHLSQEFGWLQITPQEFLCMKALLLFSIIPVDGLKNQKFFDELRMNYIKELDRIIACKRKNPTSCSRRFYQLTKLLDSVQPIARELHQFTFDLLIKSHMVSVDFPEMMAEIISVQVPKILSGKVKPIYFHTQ
# Description: Male rats weighing of 160 to 200 g were castrated and 24 hours after the castration, the animals were killed. The prostates were removed, weighed and homogenized at 0° C. using a Potter Teflon-flask in a (TSDPM) 10 mM Tris, 0.25 M saccharose, 0.1 mM phenyl methane sulfonyl fluoride, 20 mM molybdate, 2mM dithiothreitol, HCl pH 7.4 buffer (1 g of tissue per 5 ml of TSDPM). The homogenate was ultracentrifuged at 105,000 g×60 mn at 0° C. and aliquots of the supernatant or "cytosol" were incubated at 0° C. with a constant concentration of tritiated testosterone in the presence of increasing concentrations (0-1000 nM) of cold testosterone or of the product under test. […]
# (§1) The calculation of the relative bond affinity (RBA) was identical for all receptors. […]
# (§2) The straight line of the equation: [formula] was determined. […]
# (§3) The intersections of the straight line I50 and the curves allow the evaluation of the concentrations of the cold reference hormone (CH) and of the cold product under test (CX) which inhibit by 50% the bonding of the tritiated hormone on the receptor. The relative bond affinity (RBA) of the product under test was determined by the equation RBA=100 (CH)/(CX)
# rat thymocytes = assay: Anti-glucocorticoid activity vis-a-vis dexamethasone: incorporation of uridine in rat thymocytes; type: cell-based
# Excerpt: Glucocorticoids cause an inhibition of the incorporation of nucleosides in lymphoid tissue and the measurement of the incorporation of radio-active uridine in the thymocytes in the presence of a product under test allows its glucocorticoid activity to be evaluated.
# In accordance with the technique described by Dausse et al (3), the thymus of a suprarenalectomized rat weighing 160 to 180 g was removed, shredded and homogenized slowly using a teflon-flask homogenizer in Hanks solution. The cellular suspension was filtered on gauze, then centrifuged at 800 g×10 mn. A new centrifugation was carried out at 800 g×10 mm and the deposit was suspended in a nutritive medium (M.E.M. Gibco). The cellular concentration was adjusted to approximately 20×10^6 cells per ml and aliquots of 250 μl were incubated under carbogen for 3 hours at 37° C. with 5×10^-8 M of dexamethasone in the presence or not of increasing concentrations of product (10^-8 to 10^-6 M). 0.1 uCi of tritiated uridine was added to each incubate and the incubation was continued for one hour. The incubates were cooled and 1 ml of a cold solution of trichloroacetic acid (TCA) at 5% weight/volume was added. […] The radioactivity retained on the filters (representing the tritiated uridine incorporated in the thymocytes) was measured using a liquid scintillation spectrometer.
# [2] = molecular target: T2, Progesterone receptor of rabbit's uterus (Oryctolagus cuniculus, UniProt P06186); assay: Relative bond affinity, progesterone receptor of rabbit's uterus (tritiated R 5020 displacement); type: binding; settings: progesterone = 100
# T2 construct: The uteruses were removed, weighed and homogenised at 0° C; from tissue; host or cells: uterus cytosol (105,000 g supernatant) of estradiol-primed impuberal female rabbits
# T2 sequence (P06186 1-930): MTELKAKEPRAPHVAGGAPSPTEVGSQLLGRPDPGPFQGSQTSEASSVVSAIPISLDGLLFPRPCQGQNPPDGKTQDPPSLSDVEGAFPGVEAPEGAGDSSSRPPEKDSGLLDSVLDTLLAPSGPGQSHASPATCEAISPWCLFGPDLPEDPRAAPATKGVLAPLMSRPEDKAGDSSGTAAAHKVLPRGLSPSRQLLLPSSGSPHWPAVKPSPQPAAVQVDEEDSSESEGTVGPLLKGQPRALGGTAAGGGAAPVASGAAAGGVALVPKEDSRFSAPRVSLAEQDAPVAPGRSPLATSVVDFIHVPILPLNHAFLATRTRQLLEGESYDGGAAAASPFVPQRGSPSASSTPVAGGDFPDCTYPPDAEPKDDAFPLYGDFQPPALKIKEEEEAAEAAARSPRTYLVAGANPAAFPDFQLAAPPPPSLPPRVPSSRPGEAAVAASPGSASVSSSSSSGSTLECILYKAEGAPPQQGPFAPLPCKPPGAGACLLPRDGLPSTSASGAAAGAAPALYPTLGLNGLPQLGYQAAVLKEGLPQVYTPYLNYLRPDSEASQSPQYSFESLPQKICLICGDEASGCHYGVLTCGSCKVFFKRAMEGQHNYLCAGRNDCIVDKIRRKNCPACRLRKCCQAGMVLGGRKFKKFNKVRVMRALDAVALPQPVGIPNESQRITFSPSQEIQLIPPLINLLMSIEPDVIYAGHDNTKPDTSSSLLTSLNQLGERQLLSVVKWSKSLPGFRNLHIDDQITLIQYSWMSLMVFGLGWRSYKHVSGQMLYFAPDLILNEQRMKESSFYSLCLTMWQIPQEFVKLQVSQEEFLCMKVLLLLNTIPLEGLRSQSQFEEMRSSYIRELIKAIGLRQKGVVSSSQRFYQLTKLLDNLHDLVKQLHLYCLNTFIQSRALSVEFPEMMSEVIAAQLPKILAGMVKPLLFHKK
# Description: Impuberal female rabbits weighing about 1 kg received a cutaneous application of 25 μg of estradiol and five days after this treatment, the animals were killed. The uteruses were removed, weighed and homogenised at 0° C. using a Potter teflon-flask ina (TS) 10 mM Tris, 0.25M saccharose, HCl pH 7.4 buffer (1 g of tissue per 50 ml of TS). The homogenate was ultra-centrifuged at 105,000 g×90 mn at 0° C. and aliquots of the supernatant or "cytosol", were incubated at 0° C. for 2 hours and 24 hours with a constant concentration (T=5 nm) of tritiated R 5020 (17,21-dimethyl-19-nor-Δ^4,9 -pregnadien-3, 20-dione, strongly progrestomimetic mimetic having a great affinity for the progesterone receptor), in the presence of increasing concentrations (0-2500 nM) of cold progesterone, or of the product under test. The concentration of bonded tritiated R 5020 (B) was measured in each incubate by the technique of adsorption with carbon-dextran. […]
# as §2, §3
# [3] = molecular target: T3, Glucocorticoid receptor of rat's thymus (Rattus norvegicus, UniProt P06536); assay: Relative bond affinity, glucocorticoid receptor of rat's thymus (tritiated dexamethasone displacement); type: binding; settings: dexamethasone = 100
# T3 construct: The thymuses were removed and homogenized at 0° C; from tissue; host or cells: thymus cytosol (105,000 g supernatant) of adrenalectomized male rats
# T3 sequence (P06536 1-795): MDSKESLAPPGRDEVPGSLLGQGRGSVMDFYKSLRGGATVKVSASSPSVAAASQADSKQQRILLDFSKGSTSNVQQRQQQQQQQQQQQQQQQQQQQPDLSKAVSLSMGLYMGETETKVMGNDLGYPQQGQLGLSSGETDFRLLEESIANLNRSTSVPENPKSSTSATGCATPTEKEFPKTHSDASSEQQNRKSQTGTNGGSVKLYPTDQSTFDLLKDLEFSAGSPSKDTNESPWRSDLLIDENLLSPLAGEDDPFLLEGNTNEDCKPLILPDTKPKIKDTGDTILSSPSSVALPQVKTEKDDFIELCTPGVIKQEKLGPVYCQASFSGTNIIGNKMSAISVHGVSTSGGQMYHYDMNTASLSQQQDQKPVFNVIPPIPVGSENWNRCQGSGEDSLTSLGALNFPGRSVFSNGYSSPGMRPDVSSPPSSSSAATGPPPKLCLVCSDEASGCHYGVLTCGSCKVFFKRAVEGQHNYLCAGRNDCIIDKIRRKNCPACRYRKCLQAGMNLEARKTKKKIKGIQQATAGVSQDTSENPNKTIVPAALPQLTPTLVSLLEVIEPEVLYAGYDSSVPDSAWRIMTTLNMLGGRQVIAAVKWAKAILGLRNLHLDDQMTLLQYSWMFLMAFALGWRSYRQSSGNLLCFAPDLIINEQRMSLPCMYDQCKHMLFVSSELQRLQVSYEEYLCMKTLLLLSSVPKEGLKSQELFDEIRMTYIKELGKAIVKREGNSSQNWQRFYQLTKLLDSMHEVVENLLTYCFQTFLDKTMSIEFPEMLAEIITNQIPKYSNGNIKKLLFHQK
# Description: Male rats weighing 160 to 200 g were suprarenalectomized and 4 to 8 days after this removal, the animals were killed. The thymuses were removed and homogenized at 0° C. using a Potter teflon-flask in a (TSD) 10 mM Tris, 0.25M saccharose, 2mM dithiothreitol, HCl, pH 7.4 buffer (1 g of tissue per 10 ml of TSD). The homogenate was ultracentrifuged at 105,000 g×90 mn at 0° C. and aliquots of the supernatant or "cystosol" were incubated at 0° C. for 4 hours and 24 hours with constant concentration (T=2.5 nM) of tritiated dexamethasone in the presence of increasing concentrations (0-2,500 nM) of cold dexamethasone or of the cold product under test. The concentration of the bonded tritiated dexamethasone (B) was then measured in each incubate by the technique of adsorption with carbon-dextran.
# as §1, §2, §3
smiles,measurement,setting,value
"CC#C[C@]1(O)CC[C@H]2[C@@H]3CCC4=CC(=O)CCC4=C3[C@@H](c3ccc(N(C)CC(=O)O)cc3)C[C@@]21C [Example 1, Sodium salt of [[4-[17α-(1-propynyl)-Δ^4,9-estradien-17β-ol-3-one-11 β-yl]-phenyl]-methylamino]-acetic acid]",relative bond affinity (RBA) Androgen,[1]; incubation (so in the source) at 0° C.,"10,1"
same,"relative bond affinity (RBA) Androgen 0,5H",[1]; incubation half an hour at 0° C.,"2,1"
same,anti-glucocorticoid activity (statement in words),rat thymocytes,good anti-glucocorticoid activity
same,relative bond affinity (RBA) Progesterone 2H,[2]; incubation 2 hours at 0° C.,22
same,relative bond affinity (RBA) Progesterone 24H,[2]; incubation 24 hours at 0° C.,107
same,relative bond affinity (RBA) Glucocorticoid 4H,[3]; incubation 4 hours at 0° C.,101
same,relative bond affinity (RBA) Glucocorticoid 24H,[3]; incubation 24 hours at 0° C.,129
